Test results taken from patent US9505771B2, “Stable micronised monoclin form of asenapine maleate and its synthesis” (Laboratories Lesvi S.L., priority 2011, dated 2016).
Counter-ions that a name gives are not always drawn.

Tests used:
[1] = Stability assays of the micronised samples (polymorphic stability on storage, PXRD); type: physicochemical; details: transparent and opaque vacuum containers; for % of orthorhombic form after 2 months: 25° C.-60% RH; for % of orthorhombic form after 1 months / % of orthorhombic form after 3 months: 40° C.-75% RH
Description: During the storage period of 1 month, 2 months or 3 months, a temperature of 25° C. and a relative humidity of 60%, or a temperature of 40° C. and a relative humidity of 75%, may be used. For such tests, the samples may be placed into either or both of transparent and opaque vacuum containers. […] The monoclinic and orthorhombic forms of asenapine maleate were characterised, and thus distinguished, by the powder X-ray diffraction pattern (PXRD) of the asenapine maleate, as described in EP 1710245.
(§1) Powder X-Ray Diffraction (PXRD) patterns were acquired on a D8 Advance Series 2Theta/Theta powder diffraction system using CuKα-radiation in transmission geometry. The system was equipped with a VANTEC-1 single photon counting PSD, a Germanium monochromator, a ninety positions auto changer sample stage, fixed divergence slits and radial soller. Programs used: Data collection with DIFFRAC plus XRD Commander V.2.5.1 and evaluation with EVA V.12.0. The samples were prepared and placed in standard sample holders using two foils of polyacetate. Five hours scans in a range from 8° to 20° in 2θ were carried out.
Stability assays of the new stable monoclinic form of asenapine maleate obtained as described above were performed after 1 month, 2 months and 3 months. The samples were placed into two different types of containers, transparent and opaque vacuum containers. The stability tests were carried out at two different storage conditions, 25° C. and 60% relative humidity (RH), and at 40° C. and 75% RH.

[2] = PXRD determination of orthorhombic form content in the micronised product; type: physicochemical; details: for % of orthorhombic form in the micronised product: directly after micronisation, before storage; for orthorhombic form contained in the micronised product, as determined by PXRD / polymorphic purity (monoclinic form) of the micronised product: after micronisation
Description: as §1

Row | SMILES | % of orthorhombic form after 2 months [1] | % of orthorhombic form after 1 months [1] | % of orthorhombic form after 3 months [1] | % of orthorhombic form in the micronised product [2] | orthorhombic form contained in the micronised product, as determined by PXRD [2] | polymorphic purity (monoclinic form) of the micronised product [2]
1 | CN1C[C@@H]2c3ccccc3Oc3ccc(Cl)cc3[C@H]2C1 (racemic) [Example 2.1, asenapine maleate] | 5% | 8% | 12% | <1% | – | –
2 | CN1C[C@@H]2c3ccccc3Oc3ccc(Cl)cc3[C@H]2C1 (racemic) [Example 5, asenapine maleate] | – | – | – | <1% | less than 1 % by weight | > 99 % by weight
3 | CN1C[C@@H]2c3ccccc3Oc3ccc(Cl)cc3[C@H]2C1 (racemic) [Example 2, asenapine maleate] | – | 9% | 13% | 5% | about 5 % by weight | –
4 | CN1C[C@@H]2c3ccccc3Oc3ccc(Cl)cc3[C@H]2C1 (racemic) [Example 6, asenapine maleate] | – | – | – | – | less than 1 % by weight | > 99 % by weight
5 | CN1C[C@@H]2c3ccccc3Oc3ccc(Cl)cc3[C@H]2C1 (racemic) [Example 3, asenapine maleate] | – | 5% | 8% | 3% | about 3 % by weight | –
6 | CN1C[C@@H]2c3ccccc3Oc3ccc(Cl)cc3[C@H]2C1 (racemic) [Example 3.1, asenapine maleate] | 3% | 4% | 7% | <1% | – | –
7 | CN1C[C@@H]2c3ccccc3Oc3ccc(Cl)cc3[C@H]2C1 (racemic) [Example 4, asenapine maleate] | – | – | – | <1% | less than 1 % by weight | > 99 % by weight
